Activity data for four molecules are collected here from ChEMBL document CHEMBL3813616, “Discovery of novel 7-azaindoles as PDK1 inhibitors” (Bioorg Med Chem Lett, 2016).

Design in all cases: scale not given: the % may be the effect or the level left
Test [1] has as its target T1, Inhibitor of nuclear factor kappa-B kinase subunit beta (Homo sapiens) (UniProt O14920).
T1 sequence (whole entry): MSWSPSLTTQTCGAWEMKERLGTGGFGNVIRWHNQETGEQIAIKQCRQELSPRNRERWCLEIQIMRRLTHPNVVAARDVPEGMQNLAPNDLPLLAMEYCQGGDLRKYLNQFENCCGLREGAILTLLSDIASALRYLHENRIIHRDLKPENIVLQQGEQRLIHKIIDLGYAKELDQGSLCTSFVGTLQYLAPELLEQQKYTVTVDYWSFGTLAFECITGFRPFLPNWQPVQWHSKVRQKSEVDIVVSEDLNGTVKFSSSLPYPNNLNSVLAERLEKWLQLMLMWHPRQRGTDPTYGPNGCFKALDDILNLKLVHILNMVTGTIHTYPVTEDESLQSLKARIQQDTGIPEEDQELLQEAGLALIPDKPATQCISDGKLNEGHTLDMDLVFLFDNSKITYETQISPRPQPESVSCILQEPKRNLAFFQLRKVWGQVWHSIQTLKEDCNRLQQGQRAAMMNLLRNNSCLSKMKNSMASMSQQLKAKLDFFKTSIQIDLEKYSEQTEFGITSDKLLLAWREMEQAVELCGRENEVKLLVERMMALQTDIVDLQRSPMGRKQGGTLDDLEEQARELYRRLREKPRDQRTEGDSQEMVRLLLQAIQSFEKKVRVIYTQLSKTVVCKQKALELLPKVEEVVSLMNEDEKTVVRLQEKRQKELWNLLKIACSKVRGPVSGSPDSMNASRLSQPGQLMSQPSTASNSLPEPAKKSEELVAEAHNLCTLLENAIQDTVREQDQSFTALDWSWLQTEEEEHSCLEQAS
The test can be described thus: Inhibition of human IKKbeta (1 to 736 residues) assessed as enzyme activity at 1 uM using 33P ATP by radioactive filter binding assay.

Test [2] deals with Mitogen-activated protein kinase 1 (Homo sapiens) (UniProt P28482). Kind of test: Inhibition of human MAPK2 (2 to 360 residues) assessed as enzyme activity at 1 uM using 33P ATP by radioactive filter binding assay.
Mitogen-activated protein kinase 1 (Homo sapiens), sequence (P28482 whole entry, the tested form may be a part): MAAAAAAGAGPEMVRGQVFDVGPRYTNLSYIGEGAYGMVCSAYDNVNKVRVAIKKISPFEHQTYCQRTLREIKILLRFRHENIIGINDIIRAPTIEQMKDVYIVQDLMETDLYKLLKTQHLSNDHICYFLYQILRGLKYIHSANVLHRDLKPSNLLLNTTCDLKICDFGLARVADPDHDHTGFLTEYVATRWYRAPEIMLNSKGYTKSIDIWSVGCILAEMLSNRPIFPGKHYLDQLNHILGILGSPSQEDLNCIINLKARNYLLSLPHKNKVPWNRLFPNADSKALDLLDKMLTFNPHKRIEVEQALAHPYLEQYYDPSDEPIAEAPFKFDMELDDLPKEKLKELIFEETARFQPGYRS
For test [3], the target named is Ribosomal protein S6 kinase alpha-1 (Homo sapiens) (UniProt Q15418). Kind of test: Inhibition of human MAPKAPK1alpha (1 to 735 residues) assessed as enzyme activity at 1 uM using 33P ATP by radioactive filter binding assay.
Ribosomal protein S6 kinase alpha-1 (Homo sapiens), sequence (Q15418 whole entry, the tested form may be a part): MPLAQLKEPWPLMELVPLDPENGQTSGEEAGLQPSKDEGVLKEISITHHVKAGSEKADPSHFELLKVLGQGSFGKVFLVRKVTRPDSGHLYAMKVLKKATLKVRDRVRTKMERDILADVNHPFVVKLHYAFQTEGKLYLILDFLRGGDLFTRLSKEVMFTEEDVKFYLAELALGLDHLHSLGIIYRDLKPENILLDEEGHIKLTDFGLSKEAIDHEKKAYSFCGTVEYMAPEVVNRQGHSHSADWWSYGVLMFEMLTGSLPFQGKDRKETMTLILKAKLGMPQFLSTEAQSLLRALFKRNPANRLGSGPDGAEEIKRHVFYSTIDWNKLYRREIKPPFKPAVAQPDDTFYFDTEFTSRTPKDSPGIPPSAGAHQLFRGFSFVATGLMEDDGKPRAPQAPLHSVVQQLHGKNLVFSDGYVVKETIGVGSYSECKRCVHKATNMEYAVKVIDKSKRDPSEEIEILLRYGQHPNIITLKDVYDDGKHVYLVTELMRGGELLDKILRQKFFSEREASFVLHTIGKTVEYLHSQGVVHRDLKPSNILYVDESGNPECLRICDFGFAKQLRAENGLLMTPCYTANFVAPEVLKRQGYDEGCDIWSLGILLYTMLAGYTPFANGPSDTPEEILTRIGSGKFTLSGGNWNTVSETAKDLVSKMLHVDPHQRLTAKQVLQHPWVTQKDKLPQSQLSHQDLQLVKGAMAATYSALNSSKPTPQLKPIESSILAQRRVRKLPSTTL
Test [4] has as its target Dual specificity mitogen-activated protein kinase kinase 1 (Homo sapiens) (UniProt Q02750). The test can be described thus: Inhibition of human MKK1 (2 to 393 residues) assessed as enzyme activity at 1 uM using 33P ATP by radioactive filter binding assay.
The target in test [5] is Serine/threonine-protein kinase Nek6 (Homo sapiens) (UniProt Q9HC98). Kind of test: Inhibition of human NEK6 (8 to 313 residues) assessed as enzyme activity at 1 uM using 33P ATP by radioactive filter binding assay.
Serine/threonine-protein kinase Nek6 (Homo sapiens), sequence (Q9HC98 whole entry, the tested form may be a part): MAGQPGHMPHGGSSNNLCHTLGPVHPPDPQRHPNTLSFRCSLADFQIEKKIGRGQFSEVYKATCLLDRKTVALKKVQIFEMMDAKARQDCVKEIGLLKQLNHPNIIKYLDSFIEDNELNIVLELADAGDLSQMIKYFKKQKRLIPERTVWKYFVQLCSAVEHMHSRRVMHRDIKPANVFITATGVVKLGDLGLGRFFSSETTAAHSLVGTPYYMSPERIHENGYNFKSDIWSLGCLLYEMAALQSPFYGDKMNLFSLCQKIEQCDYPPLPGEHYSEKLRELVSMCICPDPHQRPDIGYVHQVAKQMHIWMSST
Test [6] concerns the target Rho-associated protein kinase 2 (Rattus norvegicus) (UniProt Q62868). The test can be described thus: Inhibition of rat ROCK2 (2 to 543 residues) assessed as enzyme activity at 1 uM using 33P ATP by radioactive filter binding assay.
In test [7] the target is T2, Mitogen-activated protein kinase 12 (Homo sapiens) (UniProt P53778).
T2 sequence (whole entry): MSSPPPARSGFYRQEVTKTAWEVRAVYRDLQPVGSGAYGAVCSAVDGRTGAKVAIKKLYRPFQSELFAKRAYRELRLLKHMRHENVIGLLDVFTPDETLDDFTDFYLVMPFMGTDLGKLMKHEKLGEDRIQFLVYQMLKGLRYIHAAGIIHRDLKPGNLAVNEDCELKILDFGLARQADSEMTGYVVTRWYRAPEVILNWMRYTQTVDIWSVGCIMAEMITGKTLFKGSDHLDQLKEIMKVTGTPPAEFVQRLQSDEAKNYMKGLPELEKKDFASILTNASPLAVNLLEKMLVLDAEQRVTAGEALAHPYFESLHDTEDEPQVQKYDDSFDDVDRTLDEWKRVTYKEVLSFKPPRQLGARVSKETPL
The test can be described thus: Inhibition of SAPK3 (unknown origin) assessed as enzyme activity at 1 uM using 33P ATP by radioactive filter binding assay.

For test [8], the target named is T3, Eukaryotic elongation factor 2 kinase (Homo sapiens) (UniProt O00418).
T3 sequence (whole entry): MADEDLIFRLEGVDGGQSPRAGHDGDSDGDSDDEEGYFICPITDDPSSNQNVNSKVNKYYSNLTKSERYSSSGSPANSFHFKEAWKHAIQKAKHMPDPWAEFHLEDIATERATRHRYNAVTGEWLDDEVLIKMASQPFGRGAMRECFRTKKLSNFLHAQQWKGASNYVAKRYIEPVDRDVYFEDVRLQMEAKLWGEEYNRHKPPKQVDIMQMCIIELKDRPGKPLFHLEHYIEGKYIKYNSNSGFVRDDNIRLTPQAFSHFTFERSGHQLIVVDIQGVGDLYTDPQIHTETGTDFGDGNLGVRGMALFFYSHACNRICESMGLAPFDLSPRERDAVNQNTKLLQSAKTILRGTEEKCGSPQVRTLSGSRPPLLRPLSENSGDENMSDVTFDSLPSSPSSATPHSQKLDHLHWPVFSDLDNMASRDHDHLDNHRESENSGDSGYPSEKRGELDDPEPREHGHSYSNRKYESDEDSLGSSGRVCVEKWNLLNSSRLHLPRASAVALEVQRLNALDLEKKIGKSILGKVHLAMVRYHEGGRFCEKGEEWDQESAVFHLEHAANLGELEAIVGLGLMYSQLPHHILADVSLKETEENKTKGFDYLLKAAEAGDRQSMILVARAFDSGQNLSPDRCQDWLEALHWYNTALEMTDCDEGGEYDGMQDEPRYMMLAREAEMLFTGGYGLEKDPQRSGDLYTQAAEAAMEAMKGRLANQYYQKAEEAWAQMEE
The test can be described thus: Inhibition of human EF2K (2 to 725 residues) assessed as enzyme activity at 1 uM using 33P ATP by radioactive filter binding assay.

SMILES strings stand for the structures.

Dual specificity mitogen-activated protein kinase kinase 1 (Homo sapiens), sequence (Q02750 whole entry, the tested form may be a part): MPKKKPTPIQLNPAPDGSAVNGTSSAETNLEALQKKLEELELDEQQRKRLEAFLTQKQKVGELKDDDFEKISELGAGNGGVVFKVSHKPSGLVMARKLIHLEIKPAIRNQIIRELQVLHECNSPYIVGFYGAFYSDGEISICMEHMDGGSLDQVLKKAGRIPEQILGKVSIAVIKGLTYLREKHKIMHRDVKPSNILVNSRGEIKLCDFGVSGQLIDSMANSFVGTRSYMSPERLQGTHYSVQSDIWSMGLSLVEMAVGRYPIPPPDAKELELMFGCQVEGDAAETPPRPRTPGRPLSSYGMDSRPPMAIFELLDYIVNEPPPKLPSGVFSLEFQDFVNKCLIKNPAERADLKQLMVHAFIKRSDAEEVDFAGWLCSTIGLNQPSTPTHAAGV
Rho-associated protein kinase 2 (Rattus norvegicus), sequence (Q62868 whole entry, looked up, the tested form may be a part): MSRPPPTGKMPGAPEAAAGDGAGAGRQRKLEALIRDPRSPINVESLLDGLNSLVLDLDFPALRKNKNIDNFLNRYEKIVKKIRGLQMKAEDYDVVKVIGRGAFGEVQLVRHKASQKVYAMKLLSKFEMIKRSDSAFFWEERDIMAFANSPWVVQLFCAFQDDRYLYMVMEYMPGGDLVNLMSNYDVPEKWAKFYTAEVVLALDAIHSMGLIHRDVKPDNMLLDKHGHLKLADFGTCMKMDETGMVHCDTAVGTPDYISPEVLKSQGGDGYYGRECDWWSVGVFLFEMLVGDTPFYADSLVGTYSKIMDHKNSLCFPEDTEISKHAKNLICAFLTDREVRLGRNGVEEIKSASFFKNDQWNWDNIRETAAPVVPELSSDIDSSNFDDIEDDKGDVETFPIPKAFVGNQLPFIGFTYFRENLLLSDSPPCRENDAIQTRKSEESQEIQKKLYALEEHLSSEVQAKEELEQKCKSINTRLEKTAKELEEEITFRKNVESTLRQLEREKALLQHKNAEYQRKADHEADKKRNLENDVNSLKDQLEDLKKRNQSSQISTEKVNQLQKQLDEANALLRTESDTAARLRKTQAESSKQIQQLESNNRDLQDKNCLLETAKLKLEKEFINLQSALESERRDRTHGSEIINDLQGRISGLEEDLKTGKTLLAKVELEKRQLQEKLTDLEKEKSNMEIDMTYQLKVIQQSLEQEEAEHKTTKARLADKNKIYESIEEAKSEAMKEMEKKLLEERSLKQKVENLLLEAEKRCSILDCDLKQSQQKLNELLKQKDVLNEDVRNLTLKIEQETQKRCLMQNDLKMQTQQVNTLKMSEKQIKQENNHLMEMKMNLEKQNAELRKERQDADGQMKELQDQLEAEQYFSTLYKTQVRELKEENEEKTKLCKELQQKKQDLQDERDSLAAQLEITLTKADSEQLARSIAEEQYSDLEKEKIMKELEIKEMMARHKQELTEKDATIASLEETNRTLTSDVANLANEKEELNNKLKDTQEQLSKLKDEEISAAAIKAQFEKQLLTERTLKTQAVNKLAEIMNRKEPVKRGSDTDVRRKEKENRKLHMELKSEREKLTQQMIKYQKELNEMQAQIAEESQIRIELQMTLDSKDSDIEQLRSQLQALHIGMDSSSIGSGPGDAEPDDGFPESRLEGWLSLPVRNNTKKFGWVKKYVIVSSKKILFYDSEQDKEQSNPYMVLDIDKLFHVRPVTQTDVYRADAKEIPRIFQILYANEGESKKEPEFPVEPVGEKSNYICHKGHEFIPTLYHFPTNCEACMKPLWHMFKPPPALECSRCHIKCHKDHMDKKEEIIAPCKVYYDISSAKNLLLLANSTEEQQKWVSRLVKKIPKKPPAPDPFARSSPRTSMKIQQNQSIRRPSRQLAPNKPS

In the case of `CCCCc1cc(-c2c[nH]c3ncc(-c4cnn(C5CCNCC5)c4)cc23)nc(N)n1`, the Activity in test [1] is -63%; in test [2], -30%; in test [3], -88%; in test [4], -82%; in test [5] it was -16%; in test [6] it was -80%. Further, the values for the Activity in test [7] and in test [8] were -42% and -31%, respectively.

In the case of `CCCCc1cc(-c2c[nH]c3ncccc23)nc(N)n1`, the Activity in test [1] is -27%; in test [2], -9%; in test [3], -56%; in test [4], -21%; in test [5], -11%; in test [6], -93%. Also, the Activity in test [7] is -57%; in test [8], -1%.

Regarding `CCc1cc(-c2c[nH]c3ncc(-c4cnn(C5CCNCC5)c4)cc23)nc(N)n1`, the Activity was -46% in test [1]; -32% in test [2]; -86% in test [3]; -77% in test [4]; -4% in test [5]; -65% in test [6]. Further, the Activity in test [7] was -45%; in test [8], 3%.

Turning to `Nc1nccc(-c2c[nH]c3ncccc23)n1` [MERIOLIN 1], the Activity in test [1] is -45%; in test [2], -21%; in test [3] it was -82%; in test [4] it was -67%; in test [5], -7%; in test [6], -97%. For the same molecule, the Activity in test [7] was -59%; in test [8], -20%.
